# Target: T1, TNIK (Homo sapiens, UniProt Q9UKE5)
# T1 construct: purchased Promega V4158
# Experiment: ADP-Glo Kinase Assay, inhibition activity on TNIK
# Format: biochemical
# Details: not given
# Description: The inhibition activities on TNIK, IKKε and TBK1 were measured by a luminometer, TNIK/IKKε/TBK1 Kinase Enzyme System (Promega, Ca# V4158; Invitrogen, PR8031B, Promega, Ca# V3991) and ADP-Glo Kinase Assay using ADP-Glo™ Kinase Analysis Kit (Promega, Ca# V9101) and a kinase reaction buffer [40 mM Tris(pH 7.5), 20 mM MgCl2, 0.1 mg/mL BSA] in accordance with the manufacturer's protocol.
# T1 sequence (Q9UKE5 1-367 limits assumed): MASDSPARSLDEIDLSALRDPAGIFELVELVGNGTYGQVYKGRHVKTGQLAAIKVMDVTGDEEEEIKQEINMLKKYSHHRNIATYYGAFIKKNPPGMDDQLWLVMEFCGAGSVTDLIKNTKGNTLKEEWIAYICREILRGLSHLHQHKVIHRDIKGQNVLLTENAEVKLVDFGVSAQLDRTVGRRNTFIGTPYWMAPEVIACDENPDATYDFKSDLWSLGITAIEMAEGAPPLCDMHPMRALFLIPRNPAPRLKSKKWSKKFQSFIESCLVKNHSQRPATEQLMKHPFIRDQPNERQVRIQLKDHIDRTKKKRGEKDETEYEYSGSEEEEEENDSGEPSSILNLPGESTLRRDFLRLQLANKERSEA
row,Structure (SMILES),TNIK (μM)
1,"O=C(Nc1ccc(Nc2ccccn2)c2c1C(=O)NC2)c1ccc(F)cc1 [Example 428, 4-Fluoro-N-(3-oxo-7-(pyridin-2-ylamino)isoindolin-4-yl) benzamide]",Insoluble

# Same assay, conditions: read-out: TNIK
row,Structure (SMILES),IC50 [nM]
1,"O=C(Nc1ccc(Nc2cccc(F)c2)c2c1C(=O)NC2)c1ccccc1 [Example 415, N-(7-((3-fluorophenyl)amino)-3-oxoisoindolin-4-yl)benzamide]",1700
2,"COc1ccc(Nc2ccc(NC(=O)c3ccccc3)c3c2CNC3=O)cc1 [Example 416, N-(7-((4-methoxyphenyl)amino)-3-oxoisoindolin-4-yl) benzamide]",3700
3,"Cc1ccc(C(=O)Nc2ccc(Nc3ccccc3)c3c2C(=O)NC3)cc1 [Example 417, 4-Methyl-N-(3-oxo-7-(phenylamino)isoindolin-4-yl)benzamide]",500
4,"O=C(Nc1ccc(Nc2cccc(Cl)c2)c2c1C(=O)NC2)c1ccc(F)cc1 [Example 418, N-(7-((3-chlorophenyl)amino)-3-oxoisoindolin-4-yl)-4-fluorobenzamide]",1170
5,"O=C(Nc1ccc(Nc2ccccc2Cl)c2c1C(=O)NC2)c1ccc(F)cc1 [Example 419, N-(7-((2-chlorophenyl)amino)-3-oxoisoindolin-4-yl)-4-fluorobenzamide]",2110
6,"O=C(Nc1ccc(Nc2ccccc2)c2c1C(=O)NC2)c1ccccc1F [Example 420, 2-Fluoro-N-(3-oxo-7-(phenylamino)isoindolin-4-yl)benzamide]",790
7,"O=C(Nc1ccc(Nc2ccccc2)c2c1C(=O)NC2)c1cccc(F)c1 [Example 421, 3-Fluoro-N-(3-oxo-7-(phenylamino)isoindolin-4-yl)benzamide]",820
8,"COc1cccc(Nc2ccc(NC(=O)c3ccc(F)cc3)c3c2CNC3=O)c1OC [Example 422, N-(7-((2,3-dimethoxyphenyl)amino)-3-oxoisoindolin-4-yl)-4-fluorobenzamide]",1180
9,"O=C(Nc1ccc(Nc2cc(C(F)(F)F)cc(C(F)(F)F)c2)c2c1C(=O)NC2)c1ccc(F)cc1 [Example 423, N-(7-((3,5-bis(trifluoromethyl)phenyl)amino)-3-oxoisoindolin-4-yl)-4-fluorobenzamide]",> 20000
10,"Cc1cccc(Nc2ccc(NC(=O)c3ccc(F)cc3)c3c2CNC3=O)c1C [Example 424, N-(7-((2,3-dimethylphenyl)amino)-3-oxoisoindolin-4-yl)-4-fluorobenzamide]",1350
11,"COc1ccccc1Nc1ccc(NC(=O)c2ccc(F)cc2)c2c1CNC2=O [Example 425, 4-Fluoro-N-(7-((2-methoxyphenyl)amino)-3-oxoisoindolin-4-yl)benzamide]",840
12,"Cc1ccccc1Nc1ccc(NC(=O)c2ccc(F)cc2)c2c1CNC2=O [Example 426, 4-Fluoro-N-(3-oxo-7-(o-tolylamino)isoindolin-4-yl)benzamide]",1260
13,"O=C(Nc1ccc(Nc2cccnc2)c2c1C(=O)NC2)c1ccc(F)cc1 [Example 427, 4-Fluoro-N-(3-oxo-7-(pyridin-3-ylamino)isoindolin-4-yl) benzamide]",620
14,"O=C(Nc1ccc(Nc2cnccn2)c2c1C(=O)NC2)c1ccc(F)cc1 [Example 429, 4-Fluoro-N-(3-oxo-7-(pyrazin-2-ylamino)isoindolin-4-yl) benzamide]",530
15,Cn1cc(Nc2ccc(NC(=O)c3ccc(F)cc3)c3c2CNC3=O)cn1 [Example 430],6470
16,"COc1cccc(Nc2ccc(NC(=O)c3ccccc3)c3c2CNC3=O)c1 [Example 431, N-(7-((3-methoxyphenyl)amino)-3-oxoisoindolin-4-yl) benzamide]",940
17,"COc1ccccc1C(=O)Nc1ccc(Nc2ccccc2)c2c1C(=O)NC2 [Example 432, 2-Methoxy-N-(3-oxo-7-(phenylamino)isoindolin-4-yl) benzamide]",12200
18,"COc1ccc(C(=O)Nc2ccc(Nc3ccccc3)c3c2C(=O)NC3)cc1 [Example 433, 4-Methoxy-N-(3-oxo-7-(phenylamino)isoindolin-4-yl) benzamide]",400
19,"COc1cccc(C(=O)Nc2ccc(Nc3ccccc3)c3c2C(=O)NC3)c1 [Example 434, 3-Methoxy-N-(3-oxo-7-(phenylamino)isoindolin-4-yl) benzamide]",670
20,"CC(=O)Nc1ccc(C(=O)Nc2ccc(Nc3ccccc3)c3c2C(=O)NC3)cc1 [Example 435, 4-Acetamido-N-(3-oxo-7-(phenylamino)isoindolin-4-yl) benzamide]",210
21,"Cc1cccc(Nc2ccc(NC(=O)c3ccccc3)c3c2CNC3=O)c1 [Example 436, N-(3-oxo-7-(m-tolylamino)isoindolin-4-yl)benzamide]",590

row,Structure (SMILES),IC50 [nM]
1,O=C(Nc1ccc(Nc2cc[nH]n2)c2c1C(=O)NC2)c1ccc(F)cc1 [Example 437],2900
2,"O=C(Nc1ccc(Nc2ccccc2)c2c1C(=O)NC2)c1ccc(NCCN2CCCC2)cc1 [Example 438, N-(3-oxo-7-(phenylamino)isoindolin-4-yl)-4-((2-(pyrrolidin-1-yl)ethyl)amino)benzamide]",160
3,"O=C(Nc1ccc(Nc2ccccc2)c2c1C(=O)NC2)c1ccc(NCCN2CCCCC2)cc1 [Example 439, N-(3-oxo-7-(phenylamino)isoindolin-4-yl)-4-((2-(piperidin-1-yl)ethyl)amino)benzamide]",150
4,CN(C)CCNc1ccc(C(=O)Nc2ccc(Nc3ccccc3)c3c2C(=O)NC3)cc1 [Example 441],240
5,"O=C(Nc1ccc(Nc2ccccc2)c2c1C(=O)NC2)c1ccc(NCCN2CCOCC2)cc1 [Example 442, 4-((2-Morpholinoethyl)amino)-N-(3-oxo-7-(phenylamino)isoindolin-4-yl)benzamide]",150
6,"CN1CCN(CCNc2ccc(C(=O)Nc3ccc(Nc4ccccc4)c4c3C(=O)NC4)cc2)CC1 [Example 443, 4-((2-(4-Methylpiperazin-1-yl)ethyl)amino)-N-(3-oxo-7-(phenylamino)isoindolin-4-yl)benzamide]",120
7,"COCCNc1ccc(C(=O)Nc2ccc(Nc3ccccc3)c3c2C(=O)NC3)cc1 [Example 444, 4-((2-Methoxyethyl)amino)-N-(3-oxo-7-(phenylamino)isoindolin-4-yl)benzamide]",110
8,"COc1cccc(Nc2ccc(NC(=O)c3ccc(NCCN4CCCC4)cc3)c3c2CNC3=O)c1 [Example 445, N-(7-((3-methoxyphenyl)amino)-3-oxoisoindolin-4-yl)-4-((2-(pyrrolidin-1-yl)ethyl)amino)benzamide]",550
9,"COc1cccc(Nc2ccc(NC(=O)c3ccc(NCCN4CCCCC4)cc3)c3c2CNC3=O)c1 [Example 446, N-(7-((3-methoxyphenyl)amino)-3-oxoisoindolin-4-yl)-4-((2-(piperidin-1-yl)ethyl)amino)benzamide]",630
10,"COc1cccc(Nc2ccc(NC(=O)c3ccc(NCCCN4CCCC4)cc3)c3c2CNC3=O)c1 [Example 447, N-(7-((3-methoxyphenyl)amino)-3-oxoisoindolin-4-yl)-4-((3-(pyrrolidin-1-yl)propyl)amino)benzamide]",550
11,COc1cccc(Nc2ccc(NC(=O)c3ccc(NCCCN4CCCCC4)cc3)c3c2CNC3=O)c1 [Example 448],620
12,"Cc1cccc(Nc2ccc(NC(=O)c3ccc(NCCN4CCCC4)cc3)c3c2CNC3=O)c1 [Example 449, N-(3-oxo-7-(m-tolylamino)isoindolin-4-yl)-4-((2-(pyrrolidin-1-yl)ethyl)amino)benzamide]",590
13,"Cc1cccc(Nc2ccc(NC(=O)c3ccc(NCCN4CCCCC4)cc3)c3c2CNC3=O)c1 [Example 450, N-(3-oxo-7-(m-tolylamino)isoindolin-4-yl)-4-((2-(piperidin-1-yl)ethyl)amino)benzamide]",580
14,"Cc1cccc(Nc2ccc(NC(=O)c3ccc(NCCCN4CCCC4)cc3)c3c2CNC3=O)c1 [Example 451, N-(3-oxo-7-(m-tolylamino)isoindolin-4-yl)-4-((3-(pyrrolidin-1-yl)propyl)amino)benzamide]",480
15,"Cc1cccc(Nc2ccc(NC(=O)c3ccc(NCCCN4CCCCC4)cc3)c3c2CNC3=O)c1 [Example 452, N-(3-oxo-7-(m-tolylamino)isoindolin-4-yl)-4-((3-(piperidin-1-yl)propyl)amino)benzamide]",440
16,"O=C(Nc1ccc(Nc2ccccc2Cl)c2c1C(=O)NC2)c1ccc(NCCN2CCCC2)cc1 [Example 453, N-(7-((2-chlorophenyl)amino)-3-oxoisoindolin-4-yl)-4-((2-(pyrrolidin-1-yl)ethyl)amino)benzamide]",510
17,"O=C(Nc1ccc(Nc2ccccc2Cl)c2c1C(=O)NC2)c1ccc(NCCN2CCCCC2)cc1 [Example 454, N-(7-((2-chlorophenyl)amino)-3-oxoisoindolin-4-yl)-4-((2-(piperidin-1-yl)ethyl)amino)benzamide]",530
18,"O=C(Nc1ccc(Nc2cccc(Cl)c2)c2c1C(=O)NC2)c1ccc(NCCN2CCCC2)cc1 [Example 455, N-(7-((3-chlorophenyl)amino)-3-oxoisoindolin-4-yl)-4-((2-(pyrrolidin-1-yl)ethyl)amino)benzamide]",200
19,"O=C(Nc1ccc(Nc2cccc(Cl)c2)c2c1C(=O)NC2)c1ccc(NCCN2CCCCC2)cc1 [Example 456, N-(7-((3-chlorophenyl)amino)-3-oxoisoindolin-4-yl)-4-((2-(piperidin-1-yl)ethyl)amino)benzamide]",340
20,"O=C(Nc1ccc(Nc2cccc(Cl)c2)c2c1C(=O)NC2)c1ccc(NCCCN2CCCC2)cc1 [Example 457, N-(7-((3-chlorophenyl)amino)-3-oxoisoindolin-4-yl)-4-((3-(pyrrolidin-1-yl)propyl)amino)benzamide]",150
21,"O=C(Nc1ccc(Nc2cccc(Cl)c2)c2c1C(=O)NC2)c1ccc(NCCCN2CCCCC2)cc1 [Example 458, N-(7-((3-chlorophenyl)amino)-3-oxoisoindolin-4-yl)-4-((3-(piperidin-1-yl)propyl)amino)benzamide]",240

# — US9856216B2, “Compounds as TNIK, IKKε and TBK1 inhibitors and pharmaceutical composition comprising same” (GREEN CROSS CORPORATION, priority 2015, dated 2018)
